Reference: the supplement of paper PMC10307832

Experiments:
Experiment in all cases: relative viability (nuclei count vs DMSO), 5 days (fraction); higher = more cells survive
[1] = compound: CC(C)(C)c1nc(-c2cccc(NS(=O)(=O)c3c(F)cccc3F)c2F)c(-c2ccnc(N)n2)s1 [Dabrafenib]
Outline: (§1)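 Viability was defined as treated-well nuclei divided by vehicle-well nuclei, with the median taken over replicate plates. Cells from lung cancer lines sat overnight at 37 °C in 1536-well plates, received five √10-spaced library-drug doses by pinning on vehicle-anchored plates, and grew 5 days without medium change before one-step fixation, permeabilisation and Hoechst staining, 4× imaging and MetaXpress nuclear counts. Only plates with control CV under 25% and at least one doubling were kept.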

[2] = compound: NC(=O)c1ccc(N(C(N)=O)c2c(F)cccc2F)nc1-c1ccc(F)cc1F [VX-702]
Outline: as §1

[3] = compound: CC(C)(C)c1nc(-c2cccc(NS(=O)(=O)c3c(F)cccc3F)c2F)c(-c2ccnc(N)n2)s1 [Dabrafenib] + CC1(C)CCC(c2ccc(Cl)cc2)=C(CN2CCN(c3ccc(C(=O)NS(=O)(=O)c4ccc(N[C@H](CCN5CCOCC5)CSc5ccccc5)c(S(=O)(=O)C(F)(F)F)c4)cc3)CC2)C1 [Navitoclax] (partner 0.5 µM)
Outline: (§2)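 Relative viability was taken as the ratio of nuclei in treated wells to nuclei in vehicle wells. Lung cancer cell lines in 1536-well plates received compounds by pin tool one day after seeding, either one drug alone or a fixed anchor-drug dose plus five library-drug doses (not always all listed) in √10 steps. Nuclei were counted on 4× images after 5 days of treatment, and values are medians of duplicate plates.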

[4] = compound: NC(=O)c1ccc(N(C(N)=O)c2c(F)cccc2F)nc1-c1ccc(F)cc1F [VX-702] + N=C(N)NC(=N)NCCc1ccccc1 [Phenformin] (partner 250 µM)
Outline: as §2

Cell Line	relative viability ([1]; 0.009487 µM)	relative viability ([1]; 0.03 µM)	relative viability ([1]; 0.09487 µM)	relative viability ([1]; 0.3 µM)	relative viability ([2]; 0.02 µM)	relative viability ([2]; 0.2 µM)	relative viability ([2]; 0.6325 µM)	relative viability ([2]; 2 µM)	relative viability ([3]; first compound 0.009487 µM)	relative viability ([3]; first compound 0.03 µM)	relative viability ([3]; first compound 0.09487 µM)	relative viability ([3]; first compound 0.3 µM)	relative viability ([4]; first compound 0.02 µM)	relative viability ([4]; first compound 0.2 µM)	relative viability ([4]; first compound 0.6325 µM)	relative viability ([4]; first compound 2 µM)	relative viability ([1]; 0.003 µM)	relative viability ([3]; first compound 0.003 µM)
NCI-H23	0.913	0.85	0.642	0.919	1.07	0.87	1.1	1.16	0.855	0.755	0.795	0.957	0.787	0.77	0.884	0.875	–	–
NCI-H322M	1.14	–	0.943	0.9	0.979	0.888	1.01	1.02	1.38	–	1.12	1.17	0.744	0.757	0.742	0.915	–	–
NCI-H441	0.96	1.01	0.51	0.766	1.14	0.952	0.934	0.992	0.547	0.461	0.543	0.465	0.829	0.992	0.687	0.918	–	–
NCI-H460	0.954	0.919	0.968	0.985	1.02	0.95	1.06	0.989	1.14	1.26	0.998	1.06	0.532	0.551	0.608	0.373	0.965	1.17
NCI-H520	0.941	0.795	0.884	0.921	0.969	0.925	1.03	1.07	1.11	0.985	1.07	0.936	0.67	0.648	0.525	0.535	0.974	1.3
NCI-H596	1.13	0.768	1.03	1.1	1.04	0.829	1.02	1.07	0.996	0.764	1	0.921	0.587	0.749	0.797	0.742	–	0.733
NCI-H647	0.967	0.71	0.871	1.01	0.855	0.874	0.996	1.14	1.07	–	1.08	1.11	0.487	0.654	0.46	0.728	–	–
NCI-H727	0.998	0.782	0.902	1.1	1.09	1	0.84	1.04	0.608	0.543	0.545	0.825	0.618	0.607	0.568	0.499	–	–
NCI-H838	1.07	0.889	0.896	1.05	0.968	0.948	0.984	1.07	1.29	1.13	1.11	1.28	0.607	0.609	0.557	0.669	0.966	1.22
NCI-H1355	0.986	0.986	0.739	1.04	1.07	0.997	1.02	1.08	1.01	0.894	–	1.07	0.53	0.445	0.482	0.494	–	–
NCI-H1395	0.971	0.854	0.774	0.788	0.971	0.909	0.97	1.03	1.18	1.09	1.01	0.902	0.465	0.445	0.454	0.46	–	–
NCI-H1437	0.971	1.02	0.971	1.02	0.995	0.973	1.06	1.15	1.02	1.14	1.07	1.1	0.326	0.352	0.31	0.313	0.939	1.14
NCI-H1650	1.26	0.854	1.07	1.36	1	1.01	1.09	1.02	1.44	1.21	1.35	1.42	0.542	0.625	0.411	0.468	0.944	1.25
NCI-H1651	0.939	0.953	1.02	0.948	1.02	0.985	0.998	1.06	1.03	0.997	1.01	1.03	0.37	0.34	0.341	0.301	0.977	1.15
NCI-H1666	0.943	1.03	0.984	1.01	0.968	0.854	0.972	0.75	–	1.1	0.863	0.998	0.562	–	0.563	0.633	1.01	0.929
NCI-H1734	1.08	0.716	0.765	0.891	1.04	0.919	0.876	0.703	0.835	0.703	0.766	0.85	0.403	0.355	0.369	0.298	–	–
NCI-H1755	1.03	0.875	0.94	0.971	1.01	1.03	1.1	0.998	0.938	0.75	0.964	0.997	0.638	0.608	0.611	0.62	0.99	0.949
NCI-H1792	0.915	0.877	0.679	0.806	0.763	0.87	0.866	1.05	0.61	0.608	0.568	0.557	0.314	0.303	0.45	0.237	–	–

Cell Line	relative viability ([1]; 0.009487 µM)	relative viability ([1]; 0.03 µM)	relative viability ([1]; 0.09487 µM)	relative viability ([1]; 0.3 µM)	relative viability ([2]; 0.02 µM)	relative viability ([2]; 0.2 µM)	relative viability ([2]; 0.6325 µM)	relative viability ([2]; 2 µM)	relative viability ([3]; first compound 0.009487 µM)	relative viability ([3]; first compound 0.03 µM)	relative viability ([3]; first compound 0.09487 µM)	relative viability ([3]; first compound 0.3 µM)	relative viability ([4]; first compound 0.02 µM)	relative viability ([4]; first compound 0.2 µM)	relative viability ([4]; first compound 0.6325 µM)	relative viability ([4]; first compound 2 µM)	relative viability ([1]; 0.003 µM)	relative viability ([3]; first compound 0.003 µM)
NCI-H1793	1.29	–	0.761	1.05	0.916	0.79	0.968	0.844	0.599	0.306	0.445	0.669	0.284	0.331	0.415	0.358	–	0.463
NCI-H1915	1.04	0.823	0.523	0.579	1.08	1	1	1.05	0.768	0.733	0.732	0.746	0.366	0.374	0.363	0.384	1.03	0.777
NCI-H1944	0.997	0.841	0.952	0.985	0.941	0.985	1.01	0.443	1.03	0.971	0.968	0.899	0.228	0.202	0.2	0.161	0.911	0.954
NCI-H1975	0.982	0.925	0.778	0.854	0.97	0.923	1.08	1.22	1.11	0.954	1	1.18	0.432	0.413	0.413	0.418	0.936	1.2
NCI-H1993	0.945	0.966	1.12	1.4	0.876	0.874	1.04	0.862	1.04	0.902	1.08	1.17	0.498	0.493	0.518	0.562	0.913	0.834
NCI-H2009	0.974	0.894	0.625	0.628	1.23	1.15	1.2	1.26	1.02	1.06	0.909	0.841	0.572	0.56	0.577	0.617	0.883	1.11
NCI-H2023	1.01	1.01	0.948	1.07	1.03	1.04	1.01	1.18	1.03	0.995	0.915	1.05	0.407	0.469	0.413	0.559	0.877	1.06
NCI-H2085	1.06	1	0.999	1.09	1.06	1.05	1	0.99	1.14	1.16	1.1	1.09	0.718	0.728	0.704	0.702	0.846	1.15
NCI-H2087	1.08	0.853	0.687	0.898	1.17	1.01	0.997	1.08	0.881	0.893	0.842	0.892	0.481	0.445	0.422	0.528	–	0.947
NCI-H2126	1.06	0.994	1.02	1.08	1.03	0.963	1.02	0.954	0.887	0.823	0.866	0.956	0.545	0.521	0.51	0.507	0.875	0.779
NCI-H2170	1.01	0.906	0.815	0.895	1.09	0.946	1.05	1	0.704	0.463	0.641	0.594	0.475	0.442	0.429	0.451	0.991	0.702
NCI-H2228	0.987	0.994	0.902	0.944	1.11	1.06	0.84	1.08	0.953	0.693	0.854	0.757	0.48	0.354	0.324	0.34	0.864	0.543
NCI-H2347	1.07	0.877	0.811	0.89	1.05	1.1	1.04	1.01	0.92	0.733	0.766	0.752	0.574	–	0.395	0.425	–	0.536
NCI-H2405	0.931	0.7	0.898	0.961	1.09	0.941	0.978	1.12	0.697	–	0.734	0.73	0.457	0.437	0.385	0.401	–	–
NCI-H3122	1.05	1.09	0.991	1.06	1.01	0.979	1	1	1.01	1.06	0.991	1.08	0.409	0.388	0.44	0.424	0.981	1.04
PC-3 [JPC-3]	1.08	1.11	1.03	1.13	1.11	0.988	1.13	1.06	0.829	0.822	0.781	0.788	0.484	0.491	0.457	0.464	0.822	0.85
PC-14	1.05	1.11	1.01	1.1	1.11	1.03	1.12	0.873	0.977	1.05	1.01	1.06	0.618	0.547	0.689	0.483	0.795	1.01
RERF-LC-KJ	1.15	0.969	0.986	1.1	0.989	1.03	1.01	1.03	1.21	0.902	–	1.15	0.401	0.449	0.369	0.517	1	1.21
